Assay results reported in patent US20230285389A1, “USE OF CSF-1R KINASE INHIBITOR” (Shanghai Runshi Medical Technology Co., Ltd, priority 2020, published 2023).

Key:
[1] = test system: CSF-1-induced bone marrow-derived macrophages (BMDM); assay: CSF-1-induced murine-derived macrophage (BMDM) survival (CCK-8); format: cell-based, BALB/c mice; conditions: Mus musculus, 168 h, read-out: IC50 inhibition of cell survival, BMDM (CSF-1)
Description: BALB/c mice (female, 6 weeks old, healthy) were sacrificed. Bone marrow cells were taken from their femurs and tibia, and seeded into a 96-well culture plate at appropriate densities (90 µL per well) after erythrobiasis treatment. 100 ng/mL of CSF-1 factor was added to each well to induce macrophages (Bone marrow-derived macrophages, BMDM), and compounds at various concentrations were added and the plate was allowed for incubation for 7 days. A solvent control group (negative control) was set. After 7 day-exposure of the cells to the compounds, 10 µL of CCK-8 reagent was added to each well. The culture plate was placed in an incubator at 37° C. for 2-4 h, and then was read with a full-wavelength microplate reader setting at the wavelength of 450 nm.

[2] = test system: MC38 subcutaneous xenograft; assay: Immune cell subpopulation scan in tumor tissue of MC38 xenograft model; format: in vivo, mouse
Description: MC38 cells in good condition were re-suspended to 25 million cells/mL. 200 µL of cell suspension was inoculated subcutaneously in the right armpit of each mouse. When the tumor cells formed subcutaneous xenograft in the mice and grew to an average volume of approximately 100 mm^3, the mice were randomly assigned to the dosing group and the control group. The test compounds were prepared at the desired concentrations and corresponding equal amount of solvent was used as a solvent control. The drugs were administrated orally, and administrated once per day for 24 consecutive days.
During the dosing period, the xenograft volumes of the mice and the weights of the mice were measured every 2-4 days. When the MC38 subcutaneous xenograft from the solvent control group of grew to 700-800 mm^3, the experiment was stopped. Fresh tumors removed from the mice were sheared with scissors into fragments no more than 2 mm^3. The digestive enzyme was prepared according to the instructions of Tumor Dissociation Kit. The tumor tissue mass was re-suspended with 2.5 mL of prepared enzyme solution, and was placed into a gentleMACS™ Dissociator instrument for dissociating the tumor with a selected program. After completion of dissociation, the suspension was filtered with a 70 µM filter screen to obtain a cell suspension. The cell suspension was lysed with an erythrocyte lysing agent for 10 min, centrifuged at 300 g for 5 min, and re-suspended with PBS. Desired amount of cells were taken out after cell counting. The cells were first washed twice with PBS. After washing, each sample was re-suspended with 100 µL of PBS and 0.5 µL of the fluorescent antibody prepared according to the manufacturer’s instructions to distinguish dead and live cells was added. The samples were stained in the dark at 4° C. for 30 min. After 30 min, the samples were washed twice with 1 mL of the running buffer and the tubes were centrifuged at 300 g for 5 min at 4° C. The blocking antibody diluent was prepared by adding 2 µL of blocking antibody TruStain fcX™ (anti-mouse CD16/32) per 100 µL running buffer and was added on the basis of the 100 µL system of each sample. After blocking for 10 min, according to the manufacturer’s instructions, the fluorescent antibody corresponding to the surface protein was added to the samples, and the reactant was allowed for incubation at 4° C. for 30 min. At this step, a single staining control and an FMO control were set. Then, the samples were washed twice with 1 mL of the running buffer, and centrifuged at 300 g for 5 min at 4° C. each time.
If only surface proteins were to be examined, after centrifugation, the samples were re-suspended with 300 µL of PBS and immediately input into machines, or the samples were fixed with 4% paraformaldehyde for 15 min, and centrifuged at 500 g for 7 min. The supernatants were discarded and the pellets were re-suspended with PBS and stored for further machine analysis.
If intracellular factors were to be examined as well, when the supernatants were discarded after centrifugation, 100 µL of re-suspended samples were retained. IC fixation solution in Intracellular Fixation & Permeabilization Buffer Set was added to each sample based on the 100 µL volume. The samples were placed at 4° C. for fixation for 30 min. After the fixation was completed, the samples were centrifuged at 500 g for 7 min. 10×Permeabilization Buffer was prepared into 1×membrane destructive solution with triple distilled water. After centrifugation, 2 mL of 1×membrane destructive solution was added to each sample to re-suspend the samples, and the samples were centrifuged at 500 g for 7 min. The process was repeated twice. 1×membrane destructive solution was used to prepare the intracellular fluorescent antibody as recommended in the instructions for antibody. The cells were re-suspended in a system of 100 µL per well, and placed at 4° C. to stain for 30 min. At this step, a single staining control and an FMO control were set. […]

[3] = test system: mouse colon cancer CT-26 xenograft; assay: Growth of subcutaneous CT-26 xenografts, combination with anti-PD-1 antibody; format: in vivo, BALB/c mice; conditions: compound I alone (+ Rat IgG2a isotype), 5 mg/kg orally once a day, 12 days
Description: CT-26 cells were subcutaneously inoculated into the right axillary fossa of BALB/c mice at a cell number of 5 × 10^6 per mouse. When the tumor cells successfully formed subcutaneous xenografts in the mice which further grew to an average volume of approximately 100 mm^3, the mice were randomly assigned to the dosing group and the control group. For the anti-PD-1 antibody group, an anti-PD-1 antibody (Bio X Cell Company, InVivoMAb anti-mouse PD-1 (CD279) (catalog : BE0273)) was administered […] once every three days at 10 mg/kg for 12 days. The control group was administrated the same amount of Hamster Ig (Rat IgG2a), as the isotype control of the anti-PD-1 antibody, and the administration route, dosage and frequency were same as those for the anti-PD-1 antibody group. […] Throughout the experiment, the tumor volume and the mice’s body weights were measured twice a week.
The tumor volume (TV) was calculated as TV = ½×a×b^2, where “a” and “b” are the length and width of the xenograft, respectively.
The relative tumor volume (RTV) was calculated from the results of the measurement according to the following equation:
RTV = Vt/V0, where V0 was the tumor volume measured at the beginning of administration (i.e., d0) and Vt was the tumor volume measured at each point.
The evaluation index of the anti-tumor activity was tumor growth inhibition ratio TGI (%), which was calculated as: […]

[4] = test system: CD8+ T cells co-cultured with CSF-1-induced BMDMs; conditions: BMDMs pre-incubated with compound; co-culture 72 h
[5] = each dose group, oral once per day

CNC(=O)c1cccc2cc(Oc3ccnc(NC(=O)c4ccc(N5C[C@@H](C)N[C@@H](C)C5)cc4)c3)ccc12 [Compound I]
IC50 [1]: 10.2 ± 0.8 nM | infiltration of Granzyme B+CD8+ T cells vs solvent control ([2]; 10 mg/kg group): significantly increased | infiltration of CD206+ M2-biased macrophages in TAMs [2, 5]: further down-regulated | infiltration of TAMs in tumor tissue vs solvent control [2, 5]: significantly reduced | infiltration of CD8+ T cells vs solvent control ([2]; oral once per day): no significant change | infiltration of IFNγ+CD8+ T cells vs solvent control ([2]; oral once per day): no significant change | infiltration of Treg cells ([2]; oral once per day): significantly reduced | TGI / tumor inhibition rate [3]: 45.8% | CD8+ T cell proliferation compared to solvent control [4]: substantially increased
